The results in this text go back to patent US12116343B2, “Inhibitors of APOL1 and methods of using same” (Vertex Pharmaceuticals Incorporated, priority 2020, dated 2024).

The target of one experiment is T1, G1 APOL1 (Homo sapiens, UniProt O14791, I384M/S342G).
T1 construct: expressed in transfected cells
T1 sequence (O14791 28-398 S342G/I384M): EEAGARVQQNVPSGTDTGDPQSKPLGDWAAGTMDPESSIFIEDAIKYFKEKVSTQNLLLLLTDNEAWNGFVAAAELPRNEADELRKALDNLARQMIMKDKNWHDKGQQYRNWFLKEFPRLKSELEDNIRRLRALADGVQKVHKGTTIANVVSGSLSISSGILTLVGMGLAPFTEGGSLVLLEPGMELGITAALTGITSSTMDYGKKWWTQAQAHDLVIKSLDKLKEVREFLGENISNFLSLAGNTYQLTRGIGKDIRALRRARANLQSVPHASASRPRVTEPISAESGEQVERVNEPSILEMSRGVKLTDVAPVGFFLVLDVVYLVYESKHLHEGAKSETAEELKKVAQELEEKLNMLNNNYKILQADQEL
Description: Acute APOL1 Thallium Assay with inducible stable clones of HEK 293 cells. To be noted: HEK 293 T-Rex cells expressing G1 APOL1; read-out: Thallium Assay (IC50). The experiment is classed as cell-based. The text has this: Acute APOL1 Thallium Assay with Inducible Stable Clones of HEK 293 Cells
Apolipoprotein L1 (APOL1) proteins form potassium-permeable cation pores in the plasma membrane. APOL1 risk variants (G1 and G2) induce greater potassium flux than G0 in HEK293 cells. This assay exploits the permeability of thallium (Tl+) through ligand-gated potassium channels. The dye produces a bright fluorescent signal upon binding to Tl+ conducted through potassium channels. The intensity of the Tl+ signal is proportional to the number of potassium channels in the open state. Therefore, it provides a functional indication of the potassium channel activities. During the initial dye-loading step, the Tl+ indicator dye as an acetoxymethyl (AM) ester enters the cells through passive diffusion. Cytoplasm esterases cleave the AM ester and relieve its active thallium-sensitive form. The cells are then stimulated with Tl+. The increase of fluorescence in the assay represents the influx of Tl+ into the cell specifically through the potassium channel (i.e. through APOL1 pores), providing a functional measurement of potassium channel/pore activity. The Thallium assay is conducted with cells expressing G1 APOL1.
APOL1 Cell Line (HEK T-Rex Stable Inducible Cell Line) • HEK T-Rex System • Tetracycline (Tet) inducible mammalian expression system. • Stably express the Tet repressor to regulate transcription. • Expression under the full-length CMV promoter. • APOL1 stable inducible cell line Clone used: G1 DC3.25
Tissue Culture Media • Cell Culture Medium • DMEM+10% FBS+P/S+5 μg/mL blasticidin+1 μg/mL puromycin. • 500 mL DMEM+55 mL FBS+5 mL P/S+280 μL blasticidin S HCl (10 mg/mL)+56 μL puromycin (10 mg/mL). • Cell Assay Medium • DMEM with 2% FBS+pen strep.
Instruments and Equipment • Nuaire cell culture hood, Cat. No. 540-600 • 37° C./5% CO2 incubator link to robotic arm, Liconic: STX110 • Molecular Devices FLIPR^Tetra High throughput cellular screening system, Cat. No. FT0324, Molecular Devices • ThermoFisher MultiDrop 384, Cat. No. 5840300 • Biotek Microfill, Cat. No. ASF1000A-4145 • BioRad TC10 cell counter, Cat. No. 145-0010 Assay Procedures
Cells Scaled Up from Frozen Vials • APOL1 G1 3.25 (HEK293 T-Rex) frozen vials: 5 million cells per vial • Step 1, Day 1: Defrost frozen vial into T-225. • Step 2, Day 5: (when 85% confluent): Split one T-225 at 3×10^6 cells per flask. • Step 3, Day 8: Splits cells to set up for the assay plates as described below.
T-Rex APOL1 HEK cells are split twice per week to keep the confluence state below 85% of the culture flask surface area. Cells can be kept until passage 25. • Cell Culture Medium • DMEM high glucose+10% FBS, +P/S, +5 μg/mL blasticidin, +1 μg/mL puromycin. • 500 mL DMEM, +55 mL FBS, +5 mL P/S, +280 μL blasicidin 10 mg/mL, +56 μL Puromycin 10 mg/mL. • Assay Media • Opti-MEM reduced serum medium from Invitrogen.
Preparation of Cell Assay Plates • Culture medium is removed from the x cm^2 T-flask by aspiration. • The cell monolayer is rinsed with PBS 1× at room temperature. PBS is removed by aspiration. • Cells are trypsinized using Trypsin. • The flasks are incubated at room temperature for 2-3 minutes. • Complete DMEM medium is then added. Cell suspension is then transferred to a 50 mL Falcon polypropylene tube. • Cells are then counted using a Biorad TC10 cell counter and the required amount of cells are centrifuged at 1200 RPM for 5 minutes. Required amount is 1.3×10^6 cells/mL APOL1 T-Rex HEK cells. • The pellet is suspended in the assay medium. • Using the MultiDrop, add 20 μL to each well (corresponds to 26000 cells total per well) of a 384-well black, transparent, flat bottom Poly-D coated plate. • Tetracycline as prepared in the following section is added to the cells before plating to induce APOL1 expression. • Plates are left at room temperature for 20 to 30 minutes before incubation at 37° C. and 5% CO2. […]
For the molecule `C[C@H](O)[C@H](CO)NC(=O)[C@H]1C[C@@H](c2c(-c3ccc(F)cc3)[nH]c3c(F)cc(F)cc32)C1` [Compound 245], the IC50 is more than 1 µM. The same measure, in the same setting: the same measure for `O=C(N[C@H]1CCOC1)[C@H]1C[C@@H](c2c(-c3ccc(F)cc3)[nH]c3c(F)cc(F)cc32)C1` [Compound 246]: more than 1 µM; for `Cn1nccc1NC(=O)[C@H]1C[C@@H](c2c(-c3ccc(F)cc3)[nH]c3c(F)cc(F)cc32)C1` [Compound 247]: more than 1 µM.

`O=C(NCC1COC1)[C@H]1C[C@@H](c2c(-c3ccc(F)cc3)[nH]c3c(F)cc(F)cc32)C1` [Compound 248]: the IC50 is more than 1 µM.

With `O=C1NCCCC1NC(=O)[C@H]1C[C@@H](c2c(-c3ccc(F)cc3)[nH]c3c(F)cc(F)cc32)C1` (stereo partly drawn) [Compound 249], the IC50 is more than 1 µM. For the molecule `NC(=O)CNC(=O)[C@H]1C[C@@H](c2c(-c3ccc(F)cc3)[nH]c3c(F)cc(F)cc32)C1` [Compound 250], the IC50 was more than 1 µM. Take `O=C1CCC(NC(=O)[C@H]2C[C@@H](c3c(-c4ccc(F)cc4)[nH]c4c(F)cc(F)cc43)C2)C(=O)N1` (stereo partly drawn) [Compound 252]: the concentration for half-maximal inhibition (IC50) was more than 1 µM. Still for that read-out and setting: the figure for `O=C(NC1(CO)CC1)[C@H]1C[C@@H](c2c(-c3ccc(F)cc3)[nH]c3c(F)cc(F)cc32)C1` [Compound 253] is more than 1 µM. On the same count and under the same terms, the figure for `CC(C)C(CO)NC(=O)[C@H]1C[C@@H](c2c(-c3ccc(F)cc3)[nH]c3c(F)cc(F)cc32)C1` (stereo partly drawn) [Compound 254] is more than 1 µM.

As for `CC(C)CC(NC(=O)[C@H]1C[C@@H](c2c(-c3ccc(F)cc3)[nH]c3c(F)cc(F)cc32)C1)C(N)=O` (stereo partly drawn) [Compound 255], the IC50 is more than 1 µM.

As for `CC(C)(CO)NC(=O)[C@H]1C[C@@H](c2c(-c3ccc(F)cc3)[nH]c3c(F)cc(F)cc32)C1` [Compound 256], the IC50 fell in the range of 0.25 to 1 µM. Regarding `CC[C@@H](CO)NC(=O)[C@H]1C[C@@H](c2c(-c3ccc(F)cc3)[nH]c3c(F)cc(F)cc32)C1` [Compound 257], the IC50 is more than 1 µM. Still for that read-out and setting: the figure for `C[C@@H](O)CNC(=O)[C@H]1C[C@@H](c2c(-c3ccc(F)cc3)[nH]c3c(F)cc(F)cc32)C1` [Compound 258] is more than 1 µM.

With `NC(=O)C(CO)NC(=O)[C@H]1C[C@@H](c2c(-c3ccc(F)cc3)[nH]c3c(F)cc(F)cc32)C1` (stereo partly drawn) [Compound 259], the half-inhibitory concentration (IC50) was more than 1 µM. Still for that read-out and setting: the same measure for `O=C(NCC(F)(F)F)[C@H]1C[C@@H](c2c(-c3ccc(F)cc3)[nH]c3c(F)cc(F)cc32)C1` [Compound 260]: 0.25 to 1 µM; for `Cn1cnc(CNC(=O)[C@H]2C[C@@H](c3c(-c4ccc(F)cc4)[nH]c4c(F)cc(F)cc43)C2)c1` [Compound 261]: more than 1 µM. The same measure, in the same setting: the figure for `O=C(NCCn1cccc1)[C@H]1C[C@@H](c2c(-c3ccc(F)cc3)[nH]c3c(F)cc(F)cc32)C1` [Compound 262] is more than 1 µM. As to `Cc1ccn(CCNC(=O)[C@H]2C[C@@H](c3c(-c4ccc(F)cc4)[nH]c4c(F)cc(F)cc43)C2)n1` [Compound 263], the half-maximal inhibitory concentration (IC50) was in the range of 0.25 to 1 µM.

Consider `O=C(NCCn1cncn1)[C@H]1C[C@@H](c2c(-c3ccc(F)cc3)[nH]c3c(F)cc(F)cc32)C1` [Compound 264], for which the IC50 is more than 1 µM. Same read-out and setting: the figure for `Cn1nccc1CNC(=O)[C@H]1C[C@@H](c2c(-c3ccc(F)cc3)[nH]c3c(F)cc(F)cc32)C1` [Compound 265] is more than 1 µM; for `O=C(NCC1CC(F)(F)C1)[C@H]1C[C@@H](c2c(-c3ccc(F)cc3)[nH]c3c(F)cc(F)cc32)C1` [Compound 266] it is more than 1 µM. The same measure, in the same setting: the same measure for `O=C(N[C@H]1C[C@H](O)C1)[C@H]1C[C@@H](c2c(-c3ccc(F)cc3)[nH]c3c(F)cc(F)cc32)C1` [Compound 267]: more than 1 µM; for `O=C1NCCC1NC(=O)[C@H]1C[C@@H](c2c(-c3ccc(F)cc3)[nH]c3c(F)cc(F)cc32)C1` (stereo partly drawn) [Compound 268]: more than 1 µM; for `O=C(N[C@@H]1CCOC1)[C@H]1C[C@@H](c2c(-c3ccc(F)cc3)[nH]c3c(F)cc(F)cc32)C1` [Compound 269]: more than 1 µM.

For `CC(O)[C@H](CO)NC(=O)[C@H]1C[C@@H](c2c(-c3ccc(F)cc3)[nH]c3c(F)cc(F)cc32)C1` (stereo partly drawn) [Compound 270], the IC50 was more than 1 µM. Same read-out and setting: the figure for `C[C@@H](CO)NC(=O)[C@H]1C[C@@H](c2c(-c3ccc(F)cc3)[nH]c3c(F)cc(F)cc32)C1` [Compound 271] is 0.25 to 1 µM.

On to `C[C@H](CO)NC(=O)[C@H]1C[C@@H](c2c(-c3ccc(F)cc3)[nH]c3c(F)cc(F)cc32)C1` [Compound 272], for which the IC50 is more than 1 µM. The same measure, in the same setting: the same measure for `O=C(NC(CO)(CO)CO)[C@H]1C[C@@H](c2c(-c3ccc(F)cc3)[nH]c3c(F)cc(F)cc32)C1` [Compound 273]: 0.25 to 1 µM; for `O=C([C@H]1C[C@@H](c2c(-c3ccc(F)cc3)[nH]c3c(F)cc(F)cc32)C1)N1C[C@@H](O)[C@H](O)C1` [Compound 274]: more than 1 µM.

On to `O=C1CN(C(=O)[C@H]2C[C@@H](c3c(-c4ccc(F)cc4)[nH]c4c(F)cc(F)cc43)C2)CCN1` [Compound 275], for which the IC50 was more than 1 µM. On the same count and under the same terms, the figure for `O=C(N[C@@H](CO)C(F)F)[C@H]1C[C@@H](c2c(-c3ccc(F)cc3)[nH]c3c(F)cc(F)cc32)C1` [Compound 276] is 0.25 to 1 µM; for `O=C1NC[C@@H](O)[C@@H]1NC(=O)[C@H]1C[C@@H](c2c(-c3ccc(F)cc3)[nH]c3c(F)cc(F)cc32)C1` [Compound 277] it is more than 1 µM; for `O=C(NCCO)C1CC(c2c(-c3ccc(F)cc3)[nH]c3c(F)cc(C(F)(F)F)cc23)C1` (stereo not drawn) [Compound 279] it is 0.25 to 1 µM. Still for that read-out and setting: the same measure for `NC(=O)CNC(=O)C1CC(c2c(-c3ccc(F)cc3)[nH]c3c(F)cc(C(F)(F)F)cc23)C1` (stereo not drawn) [Compound 280]: less than 0.25 µM; for `O=C(NC1(CO)CC1)C1(F)CC(c2c(-c3ccc(F)cc3)[nH]c3c(F)cc(F)cc23)C1` (stereo not drawn) [Compound 285]: less than 0.25 µM.

As for `Cn1cnc(CNC(=O)C2(F)CC(c3c(-c4ccc(F)cc4)[nH]c4c(F)cc(F)cc34)C2)c1` (stereo not drawn) [Compound 286], the half-inhibitory concentration (IC50) was less than 0.25 µM.

Staying with this experiment, now noted: Table 24, Compounds 287 to 465; read-out: Thallium Assay (IC50).
Turning to `NC(=O)CCNC1CC(c2c(-c3ccc(F)cc3)[nH]c3c(F)cc(F)cc23)C1` (stereo not drawn) [Compound 287, 3-[[3-[5,7-difluoro-2-(4-fluorophenyl)-1H-indol-3-yl]cyclobutyl]amino]propanamide], the half-inhibitory concentration (IC50) is more than 1 µM. The same measure, in the same setting: the figure for `NC(=O)CNC1CC(c2c(-c3ccc(F)cc3)[nH]c3c(F)cc(F)cc23)C1` (stereo not drawn) [Compound 288, 2-[[3-[5,7-difluoro-2-(4-fluorophenyl)-1H-indol-3-yl]cyclobutyl]amino]acetamide] is more than 1 µM. Regarding `O=C(CN[C@H]1C[C@H](c2c(-c3ccc(F)cc3)[nH]c3c(F)cc(F)cc32)C1)NCO` [Compound 289], the IC50 was in the range of 0.25 to 1 µM.
